For the assay, the target named is PDGFRβ (Rattus norvegicus (Rat), UniProt Q05030). Description: PDGFRβ Cellular Assay (PDGFRb P-Y751 HTRF in A10 cells stimulated with PDGF-BB). In kind it is cell-based. An outline of the steps:
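Phospho-Y751 PDGFRβ was measured by HTRF in lysates of A10 rat cells. Cells received compound for 3 hours before PDGF-BB stimulation (100 ng/mL working stock).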
Background: Time-resolved FRET reads energy transfer from a long-lived donor to a nearby acceptor.

Where two headings read alike, the source gives them in different places.

PDGFRβ, sequence (Q05030 32-1097): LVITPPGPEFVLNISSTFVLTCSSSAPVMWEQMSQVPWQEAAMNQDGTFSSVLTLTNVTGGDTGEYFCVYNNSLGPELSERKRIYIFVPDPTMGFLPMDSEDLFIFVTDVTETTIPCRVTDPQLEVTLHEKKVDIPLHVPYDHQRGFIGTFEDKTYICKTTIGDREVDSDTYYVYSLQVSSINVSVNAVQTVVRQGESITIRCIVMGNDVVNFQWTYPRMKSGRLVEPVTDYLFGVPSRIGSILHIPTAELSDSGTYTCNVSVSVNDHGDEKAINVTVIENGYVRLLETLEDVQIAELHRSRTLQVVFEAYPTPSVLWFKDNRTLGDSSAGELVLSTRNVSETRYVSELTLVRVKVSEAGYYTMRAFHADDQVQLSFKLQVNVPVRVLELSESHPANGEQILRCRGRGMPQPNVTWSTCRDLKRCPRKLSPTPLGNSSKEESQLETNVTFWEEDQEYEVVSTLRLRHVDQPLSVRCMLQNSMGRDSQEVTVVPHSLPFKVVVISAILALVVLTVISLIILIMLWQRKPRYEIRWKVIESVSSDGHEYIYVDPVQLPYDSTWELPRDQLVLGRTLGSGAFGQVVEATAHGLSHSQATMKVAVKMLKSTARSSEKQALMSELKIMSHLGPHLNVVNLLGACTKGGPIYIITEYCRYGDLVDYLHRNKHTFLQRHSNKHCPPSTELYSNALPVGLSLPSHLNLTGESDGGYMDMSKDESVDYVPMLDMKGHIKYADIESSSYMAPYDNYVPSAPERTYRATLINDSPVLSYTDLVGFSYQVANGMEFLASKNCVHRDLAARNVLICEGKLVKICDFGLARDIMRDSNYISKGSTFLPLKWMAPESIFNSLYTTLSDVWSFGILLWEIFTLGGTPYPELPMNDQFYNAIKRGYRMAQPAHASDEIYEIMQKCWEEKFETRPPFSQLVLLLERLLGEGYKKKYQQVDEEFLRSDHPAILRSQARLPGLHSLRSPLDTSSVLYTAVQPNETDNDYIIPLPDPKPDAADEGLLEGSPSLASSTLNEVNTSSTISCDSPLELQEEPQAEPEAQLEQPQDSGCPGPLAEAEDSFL

On to `COC/C=C/c1cn2ncc(C(=O)Nc3cc(NC(=O)CN4C[C@H](C)O[C@@H](C)C4)cnc3C)c2s1` (relative stereo) [Example 367, N-(5-(2-(trans-2,6-dimethylmorpholino)acetamido)-2-methylpyridin-3-yl)-2-((E)-3-methoxyprop-1-en-1-yl)pyrazolo[5,1-b]thiazole-7-carboxamide], for which, where the note is “PDGFR Cellular IC50”, the midpoint of inhibition, the IC50, lay at 18.6 nM.
For `COc1ncccc1-c1cn2ncc(C(=O)Nc3cc(NC(=O)CN4C[C@H](C)O[C@@H](C)C4)cnc3C)c2s1` (relative stereo) [Example 368, N-(5-(2-(trans-2,6-dimethylmorpholino)acetamido)-2-methylpyridin-3-yl)-2-(2-methoxypyridin-3-yl)pyrazolo[5,1-b]thiazole-7-carboxamide], the IC50 – broadly, the concentration that inhibits the measured activity by half – (read-out: PDGFR Cellular IC50) was 3.7 nM.
`Cc1ncc(NC(=O)CN2C[C@H](C)O[C@@H](C)C2)cc1NC(=O)c1cnn2cc(-c3c[nH]nc3C)sc12` (relative stereo) [Example 371, N-(5-(2-(trans-2,6-dimethylmorpholino)acetamido)-2-methylpyridin-3-yl)-2-(3-methyl-1H-pyrazol-4-yl)pyrazolo[5,1-b]thiazole-7-carboxamide]: the IC50 (read-out: PDGFR Cellular IC50) was determined as 29.3 nM.
As to `Cc1ncc(NC(=O)CN2C[C@H](C)O[C@@H](C)C2)cc1NC(=O)c1cnn2cc(-c3cnc(N)c(F)c3)sc12` (relative stereo) [Example 372, 2-(6-amino-5-fluoropyridin-3-yl)-N-(5-(2-(trans-2,6-dimethylmorpholino)acetamido)-2-methylpyridin-3-yl)pyrazolo[5,1-b]thiazole-7-carboxamide], the IC50 (read-out: PDGFR Cellular IC50) amounted to 21.2 nM.
On to `Cc1ncc(NC(=O)CN2C[C@H](C)O[C@@H](C)C2)cc1NC(=O)c1cnn2cc(-c3c(C)n[nH]c3C)sc12` (relative stereo) [Example 373, 2-(3,5-dimethyl-1H-pyrazol-4-yl)-N-(5-(2-(trans-2,6-dimethylmorpholino)acetamido)-2-methylpyridin-3-yl)pyrazolo[5,1-b]thiazole-7-carboxamide], for which the IC50 (read-out: PDGFR Cellular IC50) is 56.7 nM.
`Cc1ncc(NC(=O)CN2C[C@H](C)O[C@@H](C)C2)cc1NC(=O)c1cnn2cc(-c3cc[nH]n3)sc12` (relative stereo) [Example 374, N-(5-(2-(trans-2,6-dimethylmorpholino)acetamido)-2-methylpyridin-3-yl)-2-(1H-pyrazol-3-yl)pyrazolo[5,1-b]thiazole-7-carboxamide]: under “read-out: PDGFR Cellular IC50”, the 50% inhibitory concentration (IC50) is 41.3 nM.
As for `Cc1ncc(NC(=O)CN2C[C@H](C)O[C@@H](C)C2)cc1NC(=O)c1cnn2cc(-c3cnn4c3OCCC4)sc12` (relative stereo) [Example 375, 2-(6,7-dihydro-5H-pyrazolo[5,1-b][1,3]oxazin-3-yl)-N-(5-(2-(trans-2,6-dimethylmorpholino)acetamido)-2-methylpyridin-3-yl)pyrazolo[5,1-b]thiazole-7-carboxamide], under “read-out: PDGFR Cellular IC50”, the half-inhibitory concentration (IC50) amounted to 10.2 nM.
Turning to `Cc1ncc(NC(=O)CN2C[C@@H](CO)O[C@@H](C)C2)cc1NC(=O)c1cnn2cc(-c3cnn(C)c3)sc12` (relative stereo) [Example 378, N-(5-(2-(cis-2-(hydroxymethyl)-6-methylmorpholino)acetamido)-2-methylpyridin-3-yl)-2-(1-methyl-1H-pyrazol-4-yl)pyrazolo[5,1-b]thiazole-7-carboxamide], the IC50 (read-out: PDGFR Cellular IC50) was 304 nM.
In the case of `Cc1ncc(NC(=O)CN2C[C@H](C)O[C@@H](C)C2)cc1NC(=O)c1cnn2cc(-c3cnn(C4CC4)c3)sc12` (relative stereo) [Example 382, 2-(1-cyclopropyl-1H-pyrazol-4-yl)-N-(5-(2-(trans-2,6-dimethylmorpholino)acetamido)-2-methylpyridin-3-yl)pyrazolo[5,1-b]thiazole-7-carboxamide], where the note is “read-out: PDGFR Cellular IC50”, the IC50 was 7.6 nM.
Consider `COc1ncccc1-c1cn2ncc(C(=O)Nc3cc(NC(=O)CN4C[C@H](C)O[C@@H](C)C4)cnc3C)c2s1` (relative stereo) [Example 384, N-(5-(2-(trans-2,6-dimethylmorpholino)acetamido)-2-methylpyridin-3-yl)-2-(2-methoxypyridin-3-yl)pyrazolo[5,1-b]thiazole-7-carboxamide], for which the IC50 (read-out: PDGFR Cellular IC50) was 4.3 nM.
The same measure, in the same setting: next, `COc1ccncc1-c1cn2ncc(C(=O)Nc3cc(NC(=O)CN4C[C@H](C)O[C@@H](C)C4)cnc3C)c2s1` (relative stereo) [Example 385, N-(5-(2-(trans-2,6-dimethylmorpholino)acetamido)-2-methylpyridin-3-yl)-2-(4-methoxypyridin-3-yl)pyrazolo[5,1-b]thiazole-7-carboxamide]: 9.5 nM; `COc1cccc(-c2cn3ncc(C(=O)Nc4cc(NC(=O)CN5C[C@H](C)O[C@@H](C)C5)cnc4C)c3s2)n1` (relative stereo) [Example 386, N-(5-(2-(trans-2,6-dimethylmorpholino)acetamido)-2-methylpyridin-3-yl)-2-(6-methoxypyridin-2-yl)pyrazolo[5,1-b]thiazole-7-carboxamide]: 3.8 nM; `Cc1ncc(NC(=O)CN2CCC[C@H]2C)cc1NC(=O)c1cnn2cc(-c3cnn(C)c3)sc12` [Example 26, (R)-2-(1-methyl-1H-pyrazol-4-yl)-N-(2-methyl-5-(2-(2-methyl-pyrrolidin-1-yl)acetamido)pyridin-3-yl)pyrazolo[5,1-b]thiazole-7-carboxamide]: 5.9 nM.
For `Cc1ncc(NC(=O)CN2CCC[C@@H]2C)cc1NC(=O)c1cnn2cc(-c3cnn(C)c3)sc12` [Example 27, (S)-2-(1-methyl-1H-pyrazol-4-yl)-N-(2-methyl-5-(2-(2-methyl-pyrrolidin-1-yl)acetamido)pyridin-3-yl)pyrazolo[5,1-b]thiazole-7-carboxamide], the IC50 (read-out: PDGFR Cellular IC50) is 6.3 nM.
For the compound `Cc1ncc(NC(=O)CN2CCC(C)(C)C2)cc1NC(=O)c1cnn2cc(-c3cnn(CCO)c3)sc12` [Example 28, N-(5-(2-(3,3-dimethylpyrrolidin-1-yl)acetamido)-2-methylpyridin-3-yl)-2-(1-(2-hydroxyethyl)-1H-pyrazol-4-yl)pyrazolo[5,1-b]thiazole-7-carboxamide], where the note is “read-out: PDGFR Cellular IC50”, the IC50 was found to be 13.6 nM.
As for `Cc1ncc(NC(=O)CN2CCCC23CCC3)cc1NC(=O)c1cnn2cc(-c3cnn(CCO)c3)sc12` [Example 29, N-(5-(2-(5-azaspiro[3.4]octan-5-yl)acetamido)-2-methylpyridin-3-yl)-2-(1-(2-hydroxyethyl)-1H-pyrazol-4-yl)pyrazolo[5,1-b]thiazole-7-carboxamide], the IC50 (read-out: PDGFR Cellular IC50) was 5 nM.
Same read-out and setting: next, `Cc1ncc(NC(=O)CN2CCC3(CCC3)C2)cc1NC(=O)c1cnn2cc(-c3cnn(CCO)c3)sc12` [Example 30, N-(5-(2-(6-azaspiro[3.4]octan-6-yl)acetamido)-2-methylpyridin-3-yl)-2-(1-(2-hydroxyethyl)-1H-pyrazol-4-yl)pyrazolo[5,1-b]thiazole-7-carboxamide]: 16.5 nM.
Take `Cc1ncc(NC(=O)CN2CCC3(CC2)CC3)cc1NC(=O)c1cnn2cc(-c3cnn(CCO)c3)sc12` [Example 31, N-(5-(2-(6-azaspiro[2.5]octan-6-yl)acetamido)-2-methylpyridin-3-yl)-2-(1-(2-hydroxyethyl)-1H-pyrazol-4-yl)pyrazolo[5,1-b]thiazole-7-carboxamide]: the IC50 (read-out: PDGFR Cellular IC50) turned out to be 11.1 nM.
As for `Cc1ncc(NC(=O)CN2CCC3(CC3)C2)cc1NC(=O)c1cnn2cc(-c3cnn(CCO)c3)sc12` [Example 32, N-(5-(2-(5-azaspiro[2.4]heptan-5-yl)acetamido)-2-methylpyridin-3-yl)-2-(1-(2-hydroxyethyl)-1H-pyrazol-4-yl)pyrazolo[5,1-b]thiazole-7-carboxamide], the IC50 (read-out: PDGFR Cellular IC50) was determined as 20.5 nM.
In the case of `Cc1ncc(NC(=O)CN2CCCC[C@H]2C)cc1NC(=O)c1cnn2cc(-c3cnn(CCO)c3)sc12` [Example 33, (R)-2-(1-(2-hydroxyethyl)-1H-pyrazol-4-yl)-N-(2-methyl-5-(2-(2-methyl-piperidin-1-yl)acetamido)pyridin-3-yl)pyrazolo[5,1-b]thiazole-7-carboxamide], the IC50 (PDGFR Cellular IC50) is 10.1 nM.
On to `COCCn1cc(-c2cn3ncc(C(=O)Nc4cc(NC(=O)CN5CC6CCC5CC6)cnc4C)c3s2)cn1` [Example 331, N-(5-(2-(2-azabicyclo[2.2.2]octan-2-yl)acetamido)-2-methylpyridin-3-yl)-2-(1-(2-methoxyethyl)-1H-pyrazol-4-yl)pyrazolo[5,1-b]thiazole-7-carboxamide], for which the half-maximal inhibitory concentration (IC50) (read-out: PDGFR Cellular IC50) was 2.7 nM.
Take `COCCn1cc(-c2cn3ncc(C(=O)Nc4cc(NC(=O)CN5CCCC56CCC6)cnc4C)c3s2)cn1` [Example 332, N-(5-(2-(5-azaspiro[3.4]octan-5-yl)acetamido)-2-methylpyridin-3-yl)-2-(1-(2-methoxyethyl)-1H-pyrazol-4-yl)pyrazolo[5,1-b]thiazole-7-carboxamide]: the IC50 (read-out: PDGFR Cellular IC50) came out at 4.5 nM.
Consider `COCCn1cc(-c2cn3ncc(C(=O)Nc4cc(NC(=O)CN5CCC56CCC6)cnc4C)c3s2)cn1` [Example 333, N-(5-(2-(1-azaspiro[3.3]heptan-1-yl)acetamido)-2-methylpyridin-3-yl)-2-(1-(2-methoxyethyl)-1H-pyrazol-4-yl)pyrazolo[5,1-b]thiazole-7-carboxamide], for which, for the setting “read-out: PDGFR Cellular IC50”, the IC50 stood at 3.3 nM.
In turn, `COCCn1cc(-c2cn3ncc(C(=O)Nc4cc(NC(=O)CN5C[C@H]6CC[C@@H]5C6)cnc4C)c3s2)cn1` [Example 334, N-(5-(2-((1R,4S)-2-azabicyclo[2.2.1]heptan-2-yl)acetamido)-2-methylpyridin-3-yl)-2-(1-(2-methoxyethyl)-1H-pyrazol-4-yl)pyrazolo[5,1-b]thiazole-7-carboxamide] displayed an IC50 (PDGFR Cellular IC50) of 11.7 nM.
Turning to `COCCn1cc(-c2cn3ncc(C(=O)Nc4cc(NC(=O)CN5CCCC6(CC6)C5)cnc4C)c3s2)cn1` [Example 335, N-(5-(2-(5-azaspiro[2.5]octan-5-yl)acetamido)-2-methylpyridin-3-yl)-2-(1-(2-methoxyethyl)-1H-pyrazol-4-yl)pyrazolo[5,1-b]thiazole-7-carboxamide], the IC50 (read-out: PDGFR Cellular IC50) amounted to 3.5 nM.

For the origin of these results see US20240109917A1 (ACTELION PHARMACEUTICALS LTD, priority 2020, published 2024).
